One molecule from patent US20050112204A1, “Pharmaceutical formulations” (priority 2003, published 2005) can be followed below.

Common to all, as to format: physicochemical
The nature of data set [1]: aqueous solubility of voriconazole (previously measured data). The conditions noted are these: water, aqueous buffer; pH 7; 22° C.
Data set [2] can be described thus: stability of voriconazole in water. The conditions noted are these: an inactive enantiomer is formed from recombination of the retro-aldol products of hydrolysis.
Data set [3] can be described thus: visual solubility of voriconazole in water and aqueous poloxamer F127 solutions (Example 2). To be noted: for visual solubility in water: ambient conditions; for solubility: aqueous poloxamer F127 solution, aqueous with cosolvent or surfactant or cyclodextrin, thermodynamic from solid, read-out: soluble up to. As for the experimental part: Voriconazole aqueous solutions of 0.5 and 1 mg/ml were prepared in water (20 ml). Corresponding aqueous solutions of 2, 3 and 4 mg/ml were prepared in aqueous poloxamer solutions (20 ml), as follows: The samples were prepared in 50 ml glass vials, and sonicated in an ultrasonic bath for 30 minutes. The solutions were allowed to cool, then visually assessed immediately and after 18 hours. The solubilization factor on the y-axis is a code for the level of solubility visually observed.

In brackets after ≈: the same amount, converted by molar mass.

As to `C[C@@H](c1ncncc1F)[C@](O)(Cn1cncn1)c1ccc(F)cc1F` [voriconazole, (2R,3S)-2-(2,4-Difluorophenyl)-3-(5-fluoro-4-pyrimidinyl)-1-(1H-1,2,4-triazol-1-yl)-butan-2-ol], the solubility was 610 µg/mL (≈ 1.75 mM) in data set [1], no more than 2000 µg/mL in data set [3] (in 10% F127 solution) and no more than 3000 µg/mL in data set [3] (in 15% F127 solution). In addition, the stability in water result in data set [2] is reported as “not stable in water”. For the same molecule, the “visual solubility in water” value in data set [3] (0.5 mg/ml in water) is “virtually complete solubility”; in data set [3] (1 mg/ml in water), “clearly insoluble”. The “increase in solubility in comparison with water alone” value in data set [3] (10% F127 solution) is on record as “three to four fold”; in data set [3] (15% F127 solution) it was “five to six fold”.
